IC50 data for 17 compounds are collected here from patent US20260226048A1, “MULTI-CYCLIC IRAK AND FLT3 INHIBITING COMPOUNDS AND USES THEREOF” (CHILDREN'S HOSPITAL MEDICAL CENTER, priority 2023, published 2026).

The target of one assay is T1, FLT3 (Homo sapiens, UniProt P36888).
T1 sequence (P36888 27-993): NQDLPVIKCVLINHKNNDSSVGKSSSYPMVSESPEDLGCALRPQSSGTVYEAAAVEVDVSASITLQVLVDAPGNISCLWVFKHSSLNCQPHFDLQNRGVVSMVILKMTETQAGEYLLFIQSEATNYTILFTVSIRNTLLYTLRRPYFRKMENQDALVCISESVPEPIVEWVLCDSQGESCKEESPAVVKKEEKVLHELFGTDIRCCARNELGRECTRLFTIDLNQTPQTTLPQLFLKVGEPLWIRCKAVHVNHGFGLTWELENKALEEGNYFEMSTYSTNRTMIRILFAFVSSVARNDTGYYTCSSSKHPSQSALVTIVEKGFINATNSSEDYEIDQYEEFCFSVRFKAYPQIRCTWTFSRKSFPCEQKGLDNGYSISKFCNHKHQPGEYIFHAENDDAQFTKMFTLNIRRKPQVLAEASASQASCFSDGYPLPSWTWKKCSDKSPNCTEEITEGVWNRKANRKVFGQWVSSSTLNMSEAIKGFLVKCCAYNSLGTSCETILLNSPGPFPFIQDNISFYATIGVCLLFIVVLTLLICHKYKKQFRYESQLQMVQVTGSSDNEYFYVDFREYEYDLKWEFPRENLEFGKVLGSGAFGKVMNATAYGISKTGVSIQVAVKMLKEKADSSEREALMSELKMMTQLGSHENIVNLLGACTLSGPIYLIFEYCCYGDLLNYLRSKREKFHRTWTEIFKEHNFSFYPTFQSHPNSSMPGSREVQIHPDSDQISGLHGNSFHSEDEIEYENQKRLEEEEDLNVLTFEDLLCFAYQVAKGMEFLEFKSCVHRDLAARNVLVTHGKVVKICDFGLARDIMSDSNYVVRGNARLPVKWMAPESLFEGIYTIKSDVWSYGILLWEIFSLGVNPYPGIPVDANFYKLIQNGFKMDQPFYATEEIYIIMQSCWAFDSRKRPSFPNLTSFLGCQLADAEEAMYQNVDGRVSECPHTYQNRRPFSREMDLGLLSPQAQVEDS
Nature of the assay: RBC HotSpot Kinase Assay, FLT3. The class given is biochemical. On the set-up: purchased Reaction Biology (RBC HotSpot). The note with it: isolated kinase enzyme, 33P-ATP, P81 filter-binding. An excerpt: (§1) This assay uses the isolated kinase enzyme. […] Unlike kinase binding assays that measure competition for ATP, the HotSpot Kinase Assay is a functional assay that measures catalytic activity; as such it measures relative functional potency regardless of the mechanism of enzyme inhibition. This assay uses the form of the various enzymes that are easiest to express, which may not necessarily be the form of the enzyme that exist in the cell. (Sometimes the carboxy terminus has been truncated to aid in expression, or, if it is a receptor kinase, the enzyme itself is isolated from the other parts of the receptor that are involved in regulating kinase activity.)
(§2) The reagent used was as follows: Base Reaction buffer; 20 mM Hepes (pH 7.5), 10 mM MgCl2, 1 mM EGTA, 0.01% Brij35, 0.02 mg/ml BSA, 0.1 mM Na3VO4, 2 mM DTT, 1% DMSO. Required cofactors were added individually to each kinase reaction.

The target of the next assay is T2, IRAK1 (Homo sapiens, UniProt P51617).
T2 construct: purchased Reaction Biology (RBC HotSpot)
Description: RBC HotSpot Kinase Assay, IRAK1. The format is biochemical. The note with it: isolated kinase enzyme, 33P-ATP, P81 filter-binding.
Description: as §1, §2

The test system of the next assay is MOLM14 D835Y cells. Description: MOLM14 D835Y cell viability assay (Cell Titer Glo). As to conditions: cell viability, Cell Titer Glo, 48 hours, read-out: MOLM14 D835Y IC50. The format is cell-based. On the procedure:
Both cell lines have activated FLT3 receptors, each of which carry additional resistance mutations in the kinase domain (D835Y and F691L, respectively).
For viability/cytotoxicity assessments, cells were seeded into 1536-well white polystyrene tissue culture-treated Greiner plates using a Multidrop Combi dispenser (ThermoFisher), in final volume 5 μL of growth media per well, at a density of 1000 cells per well. […] Plates were incubated for 48 hours at standard incubator conditions covered by a stainless steel gasketed lid to prevent evaporation. 48 hours post compound addition, 3 μL of Cell Titer Glo (Promega) were added to each well and plates were incubated at room temperature for 15 minutes with the stainless-steel lid in place. Luminescence readings were taken using a Viewlux imager (PerkinElmer) with a 2 second exposure time per plate.

Another assay deals with T3, IRAK4 (Homo sapiens, UniProt Q9NWZ3).
T3 sequence (Q9NWZ3 1-460): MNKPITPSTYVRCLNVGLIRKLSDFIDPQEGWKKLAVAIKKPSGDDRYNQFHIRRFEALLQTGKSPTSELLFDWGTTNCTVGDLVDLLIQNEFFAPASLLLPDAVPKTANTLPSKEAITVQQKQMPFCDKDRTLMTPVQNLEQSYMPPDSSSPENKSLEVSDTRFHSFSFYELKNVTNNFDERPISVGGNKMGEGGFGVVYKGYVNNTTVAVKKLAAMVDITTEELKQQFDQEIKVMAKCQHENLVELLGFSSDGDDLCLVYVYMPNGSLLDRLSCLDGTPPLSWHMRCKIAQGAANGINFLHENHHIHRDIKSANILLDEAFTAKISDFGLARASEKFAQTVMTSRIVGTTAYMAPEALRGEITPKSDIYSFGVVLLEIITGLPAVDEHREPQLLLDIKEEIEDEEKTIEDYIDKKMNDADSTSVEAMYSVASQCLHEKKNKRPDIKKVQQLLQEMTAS
Nature of the assay: RBC HotSpot Kinase Assay, IRAK4. The class given is biochemical. On the set-up: purchased Reaction Biology (RBC HotSpot). The note with it: isolated kinase enzyme, 33P-ATP, P81 filter-binding.
Description: as §1, with “enzyme. This assay is very useful for determining competition of the inhibitor for ATP and/or substrates and for measuring the kinetics of enzyme inhibition.” for “enzyme.”
as §2
The reaction procedure was as follows: • 1) Substrates were prepared in freshly prepared Reaction Buffer. • 2) Any required cofactors were delivered to the substrate solution above. • 3) Kinase was delivered into the substrate solution and gently mixed. • 4) Compounds were delivered in 1000A DM into the kinase reaction mixture by Acoustic technology (Echo550; nanoliter range), followed by incubation for 20 min at room temp. • 5) 33P-ATP was delivered into the reaction mixture to initiate the reaction. • 6) The mixture was incubated for 2 hours at room temperature. • 7) Kinase activity was detected by P81 filter-binding method.

Like-named read-outs stand apart in the source and are kept apart here.

T2 sequence (P51617 whole entry): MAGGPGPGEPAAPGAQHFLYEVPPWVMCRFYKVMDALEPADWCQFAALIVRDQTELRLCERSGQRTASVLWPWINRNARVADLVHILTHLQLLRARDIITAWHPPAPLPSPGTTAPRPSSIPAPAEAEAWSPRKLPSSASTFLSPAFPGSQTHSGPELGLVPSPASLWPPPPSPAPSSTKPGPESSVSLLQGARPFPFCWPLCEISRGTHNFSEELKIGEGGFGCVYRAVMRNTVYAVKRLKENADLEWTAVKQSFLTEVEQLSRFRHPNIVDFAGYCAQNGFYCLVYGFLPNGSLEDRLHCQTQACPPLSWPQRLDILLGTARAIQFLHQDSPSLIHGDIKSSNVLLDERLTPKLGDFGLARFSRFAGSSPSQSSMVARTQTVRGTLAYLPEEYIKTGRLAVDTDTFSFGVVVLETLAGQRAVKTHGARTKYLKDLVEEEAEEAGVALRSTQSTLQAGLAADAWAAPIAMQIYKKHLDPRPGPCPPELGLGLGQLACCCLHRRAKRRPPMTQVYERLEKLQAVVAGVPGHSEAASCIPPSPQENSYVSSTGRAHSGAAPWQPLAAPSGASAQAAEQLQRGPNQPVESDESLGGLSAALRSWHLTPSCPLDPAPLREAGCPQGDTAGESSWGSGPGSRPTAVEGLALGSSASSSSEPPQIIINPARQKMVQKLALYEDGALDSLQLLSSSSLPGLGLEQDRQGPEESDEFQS

For the compound `CC(O)(c1ccc2ncc(-c3ccnc(N[C@H]4CNC[C@@H]4F)n3)n2c1)C(F)(F)F` (single isomer, unassigned) [Compound 24a], the half-inhibitory concentration (IC50) at FLT3 was less than 0.5 nM; at IRAK1 it was 16 nM; in the assay with MOLM14 D835Y cells (Homo sapiens, MOLM-14, 48 h) it was 41 nM; at IRAK4, 0.9 nM.

With `CC(O)(c1ccc2ncc(-c3ccnc(N[C@H]4CNC[C@@H]4F)n3)n2c1)C(F)(F)F` (single isomer, unassigned) [Compound 26a], the 50% inhibitory concentration (IC50) at FLT3 was less than 0.5 nM; on IRAK1, 5 nM; in the assay with MOLM14 D835Y cells, 23 nM; at IRAK4 it was less than 0.5 nM.

Take `CC(O)(c1ccc2ncc(-c3cncc(N[C@@H]4CCCNC4)n3)n2c1)C(F)(F)F` (single isomer, unassigned) [Compound 29a]: the concentration for half-maximal inhibition (IC50) on FLT3 was 1 nM; at IRAK1, 27 nM; in the assay on MOLM14 D835Y cells, 106 nM; at IRAK4, 0.8 nM.

On to `CC(O)(c1ccc2ncc(-c3cncc(N[C@H]4CNC[C@@H]4F)n3)n2c1)C(F)(F)F` (single isomer, unassigned) [Compound 30a], for which the half-maximal inhibitory concentration (IC50) came out at 2 nM on FLT3; 108 nM on IRAK1; 576 nM in the assay on MOLM14 D835Y cells (Homo sapiens, MOLM-14, 48 h); 5 nM on IRAK4.

Turning to `CC(O)(c1ccc2ncc(-c3cncc(N[C@H]4CNC[C@@H]4F)n3)n2c1)C(F)(F)F` (single isomer, unassigned) [Compound 32a], the concentration for half-maximal inhibition (IC50) on FLT3 was 2 nM; at IRAK1, 53 nM; in the assay on MOLM14 D835Y cells, 408 nM; at IRAK4, 1 nM.

On to `CC(O)(c1ccc2ncc(-c3cncc(N[C@H]4CNCC[C@@H]4F)n3)n2c1)C(F)(F)F` (single isomer, unassigned) [Compound 33a], for which the half-inhibitory concentration (IC50) at FLT3 was determined as 0.7 nM; at IRAK1 it was 9 nM; in the assay on MOLM14 D835Y cells, 65 nM; on IRAK4, 0.8 nM.

Regarding `CC(O)(c1ccc2ncc(-c3nc(N[C@H]4CNC[C@@H]4F)ncc3F)n2c1)C(F)(F)F` (single isomer, unassigned) [Compound 36a], the IC50 was less than 0.5 nM at FLT3; 4 nM at IRAK1; 41 nM with MOLM14 D835Y cells (Homo sapiens, MOLM-14, 48 h); 2 nM on IRAK4.

For `CC(O)(c1ccc2ncc(-c3nc(N[C@H]4CNC[C@@H]4F)ncc3F)n2c1)C(F)(F)F` (single isomer, unassigned) [Compound 38a], the half-inhibitory concentration (IC50) was less than 0.5 nM on FLT3, 1 nM on IRAK1, 51 nM with MOLM14 D835Y cells and 0.6 nM at IRAK4.

As to `CC(O)(c1ccc2ncc(-c3nc(N[C@@H]4CCCNC4)ncc3F)n2c1)C(F)(F)F` (single isomer, unassigned) [Compound 39a], the half-inhibitory concentration (IC50) at FLT3 was less than 0.5 nM; at IRAK1, 2 nM; in the assay on MOLM14 D835Y cells it was 32 nM; on IRAK4 it was 1 nM.

As to `CC(O)(c1cn2c(-c3nc(N[C@@H]4CCCNC4)ncc3F)cnc2cn1)C(F)(F)F` (single isomer, unassigned) [Compound 131a], the half-inhibitory concentration (IC50) was 2 nM at FLT3, 15 nM on IRAK1 and 28 nM at IRAK4.

With `CC(O)(c1cn2c(-c3nc(N[C@@H]4CCCNC4)ncc3F)cnc2cn1)C(F)(F)F` (single isomer, unassigned) [Compound 132a], the IC50 on FLT3 is less than 0.5 nM; on IRAK1, 3 nM; at IRAK4, 2 nM.

Regarding `CC(O)(c1cn2c(-c3nc(N[C@H]4CNCC[C@@H]4F)ncc3F)cnc2cn1)C(F)(F)F` (single isomer, unassigned) [Compound 133a], the half-maximal inhibitory concentration (IC50) on FLT3 was 1 nM; at IRAK1, 15 nM; on IRAK4, 15 nM.

As for `CC(O)(c1cn2c(-c3nc(N[C@H]4CNCC[C@@H]4F)ncc3F)cnc2cn1)C(F)(F)F` (single isomer, unassigned) [Compound 134a], the 50% inhibitory concentration (IC50) is less than 0.5 nM at FLT3, 2 nM at IRAK1 and 1 nM on IRAK4.

For `COc1cc2ncc(-c3nc(N[C@H]4CNC[C@@H]4F)ncc3F)n2nc1C1CC1` [Compound 2a, 4-(6-cyclopropyl-7-methoxyimidazo[1,2-b]pyridazin-3-yl)-5-fluoro-N-((3S,4S)-4-fluoropyrrolidin-3-yl)pyrimidin-2-amine], the IC50 at FLT3 is less than 0.5 nM; on IRAK1, 1 nM; in the assay with MOLM14 D835Y cells (Homo sapiens, MOLM-14, 48 h), 4 nM; at IRAK4 it was 0.7 nM.

As to `COc1cc2ncc(-c3nc(N[C@H]4CNCC[C@@H]4F)ncc3F)n2nc1C1(C)COC1` [Compound 70a, 5-fluoro-N-((3S,4S)-4-fluoropiperidin-3-yl)-4-(7-methoxy-6-(3-methyloxetan-3-yl)imidazo[1,2-b]pyridazin-3-yl)pyrimidin-2-amine], the results for the half-inhibitory concentration (IC50) on FLT3, at IRAK1 and on IRAK4 were less than 0.5 nM, 3 nM and less than 0.5 nM, respectively.

As for `[2H]C([2H])([2H])Oc1cc2ncc(-c3ccnc(N[C@H]4CNCC[C@@H]4F)n3)n2nc1C1CC1` [Compound 128a, 4-(6-cyclopropyl-7-(methoxy-d3)imidazo[1,2-b]pyridazin-3-yl)-N-((3S,4S)-4-fluoropiperidin-3-yl)pyrimidin-2-amine], the concentration for half-maximal inhibition (IC50) on FLT3 is less than 0.5 nM; on IRAK1, 24 nM; at IRAK4 it was 0.7 nM.

On to `[2H]C([2H])([2H])Oc1cc2ncc(-c3ccnc(N[C@@H]4CCCNC4)n3)n2nc1C1CC1` [Compound 129a, (R)-4-(6-cyclopropyl-7-(methoxy-d3)imidazo[1,2-b]pyridazin-3-yl)-N-(piperidin-3-yl)pyrimidin-2-amine], for which the IC50 on FLT3 is less than 0.5 nM; on IRAK1, 86 nM; at IRAK4, 2 nM.
